Measured values taken from patent publication EP0398427A1, “Antirhinoviral pyridazinamines” (priority 1989, dated 1990).
In brackets after ≈: the same amount, converted by molar mass.

How the values were obtained:
[1] = tested on: HRV-42,-45,-14,-70,-72 and -86; test: Picornavirus Minimal Inhibitory Concentration test (cytopathic effect reduction assay), second panel of rhinoviruses; format: cell-based; settings: Human rhinovirus sp., HRV42, HeLa, read-out: Med₂
Protocol: (§1) The Minimal Inhibitory Concentration of the compounds of the present invention against the Human Rhinovirus strains (HRV) -2,-9,-14,-15,-29,-39,-41,-42,-45,-51 -59,-63,-70,-72-,-85,-86 and -89 was determined by a standard cytophatic effect reduction assay as follows. To each of the ninty six (96) wells of a microtiter 96 well tissue culture plate there was added 60 µl of a Ohio Hela cell maintenance medium [Eagle's Basal medium supplemented with 5% Foetal Calf Serum (FCS)]. To two wells there was added 60 µl of an appropriate starting dilution of a compound of formula (I) and two-fold dilutions were made to cover a wide range of compound concentrations. Subsequently there were added 120 µl of an infectious solution of virus in Eagle's Basal Medium with 2% Hepes buffer, 2% FCS and 30 mM MgCl₂ to all wells except cell and compound controls. Said infectious virus solution having a TCID₅₀-value (Tissue Culture Infectious Dose) of about 100.
(§2) The TCID₅₀-value is the dose of viruses which initiates a cytopathic effect in 50% of the inoculated cells. 150 µl of the thus obtained virus-compound mixtures were then transferred to microtitre plates with subconfluent Ohio Hela Cells, grown in 100 µl of maintenance medium. Appropriate virus controls, cell controls and compound controls were included in each test. Plates were incubated for 3 to 5 days at 33°C in 5% CO₂ atmosphere. […] The IC₅₀-value for each virus-compound series was taken as the concentration in ng/ml that protected 50% of the cells from cytopathic effects with respect to the untreated controls. In the standard test procedure, the compounds were tested against a first panel of rhinoviruses consisting of serotypes HRV- 2,-29,-39,-85,-9,-15,-51,-59,-63,-89 and -41 and the other panel consisting of HRV-42,-45,-14,-70,-72 and -86.
(§3) The IC₅₀-value for each rhinovirus serotype was determined, and the efficacy of each compound was determined in terms of the Med₁-value and Med₂-value, which is the medium value of the IC₅₀-values of all serotypes from the first and second panel respectively.

[2] = tested on: Human Rhinovirus serotypes HRV- 2,-29,-39,-85,-9,-15,-51,-59,-63,-89 and -41; test: Picornavirus Minimal Inhibitory Concentration test (cytopathic effect reduction assay), first panel of rhinoviruses; format: cell-based; settings: Human rhinovirus sp., HeLa, read-out: Med₁
Protocol: as §1, §2, §3

SMILES: CCOC(=O)c1ccc2oc(CCC3CCN(c4ccc(Cl)nn4)CC3)nc2c1 [Compound 4, ethyl 2-[2-[1-(6-chloro-3-pyridazinyl)-4-piperidinyl]ethyl]-5-benzoxazolecarboxylate]
- IC50 [1]: 0.039 µg/mL (≈ 0.094 µM)
- IC50 [2]: 0.088 µg/mL (≈ 0.212 µM)

SMILES: CCOC(=O)c1ccc2nc(CC3CCN(c4ccc(Cl)nn4)CC3)sc2c1 [Compound 2, ethyl 2-[[1-(6-chloro-3-pyridazinyl)-4-piperidinyl]methyl]-6-benzothiazolecarboxylate]
- IC50 [1]: 0.067 µg/mL (≈ 0.161 µM)
- IC50 [2]: 0.031 µg/mL (≈ 0.0744 µM)

SMILES: CCOC(=O)c1ccc(OCCC2CCN(c3ccc(C)nn3)CC2)s1 [Compound 7, ethyl 5-[2-[1-(6-methyl-3-pyridazinyl)-4-piperidinyl]ethoxy]-2-thiophenecarboxylate]
- IC50 [1]: 0.185 µg/mL (≈ 0.493 µM)
- IC50 [2]: 0.007 µg/mL (≈ 0.0186 µM)
